Experimental data taken from publication PMC9265530, “The Three Two-Pore Channel Subtypes from Rabbit Exhibit Distinct Sensitivity to Phosphoinositides, Voltage, and Extracytosolic pH” (Cells, 2022).

Columns and labels:
OcTPC3 [1] = molecular target: T1, OcTPC3 (Oryctolagus cuniculus, UniProt B8Q2W0); assay: inside-out patch clamp, tail current at […] mV after +[…] mV step; type: biochemical; details: agonist; relative to 1 µM PI(3,5)P2; 4-s step to +100 mV; pH 7.2
T1 construct: gene TPCN3; C-terminal EGFP fusion (pEGFP-N1), transient in HEK293; previously cloned cDNA; dimer
T1 sequence (B8Q2W0 1-766): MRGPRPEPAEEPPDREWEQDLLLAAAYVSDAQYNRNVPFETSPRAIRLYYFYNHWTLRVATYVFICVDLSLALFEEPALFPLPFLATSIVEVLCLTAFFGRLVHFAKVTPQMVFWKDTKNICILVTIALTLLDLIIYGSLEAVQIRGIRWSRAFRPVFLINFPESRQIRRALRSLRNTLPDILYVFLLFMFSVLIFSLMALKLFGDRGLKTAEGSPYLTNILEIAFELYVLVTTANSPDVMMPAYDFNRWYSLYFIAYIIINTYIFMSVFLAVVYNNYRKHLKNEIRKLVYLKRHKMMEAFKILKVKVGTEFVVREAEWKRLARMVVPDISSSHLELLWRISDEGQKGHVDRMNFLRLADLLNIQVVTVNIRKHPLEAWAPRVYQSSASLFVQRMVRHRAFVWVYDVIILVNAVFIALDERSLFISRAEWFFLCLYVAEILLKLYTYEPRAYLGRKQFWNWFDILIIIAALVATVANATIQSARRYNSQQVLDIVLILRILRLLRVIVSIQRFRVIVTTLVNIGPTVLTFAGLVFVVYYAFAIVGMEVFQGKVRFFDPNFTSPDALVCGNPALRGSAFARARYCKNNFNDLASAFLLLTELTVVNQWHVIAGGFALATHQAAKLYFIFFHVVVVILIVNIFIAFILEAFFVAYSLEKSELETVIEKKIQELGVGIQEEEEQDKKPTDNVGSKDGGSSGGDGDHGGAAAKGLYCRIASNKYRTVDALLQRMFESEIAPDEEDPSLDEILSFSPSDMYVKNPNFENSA

OcTPC3 [2] = molecular target: T1, OcTPC3; assay: as above; type: cell-based
OcTPC2 [3] = molecular target: T2, OcTPC2 (Oryctolagus cuniculus, UniProt Z9ZIB8IF81); assay: whole-endolysosome patch clamp, current at -100 mV; type: cell-based; details: agonist; voltage ramps; vacuolin-1 enlarged vacuoles; cytoplasmic pH 7.2; room temperature; HEK293
T2 construct: full-length, C-terminal EGFP fusion (pEGFP-N1), transient in HEK293; cloned from rabbit kidney RNA; 749/753 residues match GBCT01193833.1; dimer

OcTPC1 = test system: T3, OcTPC1; assay: inside-out patch clamp, current at -100 mV; type: cell-based, Oryctolagus cuniculus; details: agonist; voltage ramps; cytoplasmic pH 7.2; room temperature; HEK293
T3 construct: gene TPCN1; full-length, C-terminal EGFP fusion (pEGFP-N1), transient in HEK293; cloned from rabbit kidney RNA; 815/817 residues match XM_017349553.1; dimer

OcTPC2 [4] = molecular target: T2, OcTPC2; assay: whole-endolysosome patch clamp, current at -100 mV; type: biochemical; details: inhibitor; against 100 nM PI(3,5)P2; voltage ramps

| Structure (SMILES) | % of PI(3,5)P2 response at 1 μM (OcTPC3 [1]) [%] | also measured |
| --- | --- | --- |
| CCCCCCCC(=O)OC[C@H](COP(=O)(O)O[C@H]1[C@H](O)[C@@H](O)[C@H](OP(=O)(O)O)[C@@H](OP(=O)(O)O)[C@H]1O)OC(=O)CCCCCCC [PI(3,4)P2] | 29.9 ± 5.2 |  |
| CCCCCCCC(=O)OC[C@H](COP(=O)(O)O[C@@H]1[C@H](O)[C@H](OP(=O)(O)O)[C@@H](O)[C@H](OP(=O)(O)O)[C@H]1O)OC(=O)CCCCCCC [diC8 PI(3,5)P2] |  | EC50 (OcTPC3 [2]): 142 ± 0.2 nM; EC50 (OcTPC2 [3]): 208 ± 8.1 nM; EC50 (OcTPC1): 26.3 ± 5 nM |
| CCCCCCCC(=O)OC[C@H](COP(=O)(O)O[C@H]1[C@H](O)[C@@H](OP(=O)(O)O)[C@H](OP(=O)(O)O)[C@@H](OP(=O)(O)O)[C@H]1O)OC(=O)CCCCCCC [PI(3,4,5)P3] | 7.0 ± 2.0 |  |

More lines, main results first:

| % of PI(3,5)P2 response at 1 μM (OcTPC3 [1]) [%] | Structure (SMILES) | also measured |
| --- | --- | --- |
| 93.8 ± 5.1 | CCCCCCCC(=O)OC[C@H](COP(=O)(O)O[C@@H]1[C@H](O)[C@H](OP(=O)(O)O)[C@@H](O)[C@H](O)[C@H]1O)OC(=O)CCCCCCC [PI3P] |  |
| 9.0 ± 2.0 | CCCCCCCC(=O)OC[C@H](COP(=O)(O)O[C@@H]1[C@H](O)[C@H](O)[C@@H](OP(=O)(O)O)[C@H](OP(=O)(O)O)[C@H]1O)OC(=O)CCCCCCC [PI(4,5)P2] | % inhibition at 1 μM (OcTPC2 [4]): 67.6 ± 5.3% |
